{
  "source": "patent US20250215039A1",
  "about": "“NUCLEOSIDES FOR TREATING CANCER” (PRIMEFOUR THERAPEUTICS, INC., priority 2022, published 2025)",
  "test_system": "cancer cell lines",
  "assay": "Cancer cell proliferation activity (CellTiterGlo, 72 h)",
  "format": "cell-based",
  "details": "72 h, 72 h, read-out: IC50",
  "outline": "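Readout is CellTiterGlo luminescence after 72 h compound exposure (0.1% DMSO final), started one day post-seeding, at 37 °C.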",
  "note": "Like-named read-outs stand apart in the source and are kept apart here.",
  "data": [
    {"smiles": "Cc1cn([C@H]2C[C@H](O)[C@@](C#N)(CO)O2)c(=O)[nH]c1=O", "note": "[Cpd. No. 123, (2R,3S,5R)-3-hydroxy-2-(hydroxymethyl)-5-(5-methyl-2,4-dioxo-3,4-dihydropyrimidin-1(2H)-yl)tetrahydrofuran-2-carbonitrile]", "values": [
      {"measurement": "IC50", "setting": "5637 cell line (bladder)", "value": "> 50", "unit": "µM"},
      {"measurement": "IC50", "setting": "AS49 cell line (lung)", "value": "> 50", "unit": "µM"},
      {"measurement": "IC50", "setting": "CLS439 cell line (bladder)", "value": "> 50", "unit": "µM"},
      {"measurement": "IC50", "setting": "HS729 cell line (muscle)", "value": "> 50", "unit": "µM"},
      {"measurement": "IC50", "setting": "JAR cell line (placenta)", "value": "> 50", "unit": "µM"},
      {"measurement": "IC50", "setting": "Homo sapiens, 786-0, 72 h, 786O cell line (kidney)", "value": "> 50", "unit": "µM"},
      {"measurement": "IC50", "setting": "Homo sapiens, A2780, 72 h, A2780 cell line (ovary)", "value": "> 50", "unit": "µM"},
      {"measurement": "IC50", "setting": "Homo sapiens, A-375, 72 h, A375 cell line (skin)", "value": "> 50", "unit": "µM"},
      {"measurement": "IC50", "setting": "Homo sapiens, A-431, 72 h, A431 cell line (skin)", "value": 2.6, "unit": "µM"},
      {"measurement": "IC50", "setting": "Homo sapiens, ASPC1, 72 h, ASPC1 cell line (pancreas)", "value": "> 50", "unit": "µM"},
      {"measurement": "IC50", "setting": "Homo sapiens, BT-20, 72 h, BT20 cell line (breast)", "value": "> 50", "unit": "µM"},
      {"measurement": "IC50", "setting": "Homo sapiens, CAKI-1, 72 h, CAKI1 cell line (kidney)", "value": "> 50", "unit": "µM"},
      {"measurement": "IC50", "setting": "Homo sapiens, COLO 205, 72 h, COLO205 cell line (colon)", "value": "> 50", "unit": "µM"},
      {"measurement": "IC50", "setting": "Homo sapiens, COLO-678, 72 h, COLO678 cell line (colon)", "value": "> 50", "unit": "µM"},
      {"measurement": "IC50", "setting": "Homo sapiens, Ca-Ski, CASKI cell line (cervical)", "value": "> 50", "unit": "µM"},
      {"measurement": "IC50", "setting": "Homo sapiens, Caco-2, 72 h, CACO2 cell line (colon)", "value": "> 50", "unit": "µM"},
      {"measurement": "IC50", "setting": "Homo sapiens, Calu-6, 72 h, CALU6 cell line (lung)", "value": "> 50", "unit": "µM"},
      {"measurement": "IC50", "setting": "Homo sapiens, EFO-21, 72 h, EFO21 cell line (ovary)", "value": "> 50", "unit": "µM"},
      {"measurement": "IC50", "setting": "Homo sapiens, EJ-28, 72 h, EJ28 cell line (bladder)", "value": "> 50", "unit": "µM"},
      {"measurement": "IC50", "setting": "Homo sapiens, HCT-15, 72 h, HCT15 cell line (colon)", "value": "> 50", "unit": "µM"},
      {"measurement": "IC50", "setting": "Homo sapiens, HCT-116, 72 h, HCT116 cell line (colon)", "value": "> 50", "unit": "µM"},
      {"measurement": "IC50", "setting": "Homo sapiens, HEK293, 72 h, HEK293 cell line (kidney)", "value": "> 50", "unit": "µM"},
      {"measurement": "IC50", "setting": "Homo sapiens, HL-60, 72 h, HL-60 cell line (hematological)", "value": "> 50", "unit": "µM"},
      {"measurement": "IC50", "setting": "Homo sapiens, HT-29, 72 h, HT29 cell line (colon)", "value": "> 50", "unit": "µM"},
      {"measurement": "IC50", "setting": "Homo sapiens, HT-1080, 72 h, HT1080 cell line (connective tissue)", "value": "> 50", "unit": "µM"},
      {"measurement": "IC50", "setting": "Homo sapiens, HeLa, HELA cell line (cervical)", "value": "> 50", "unit": "µM"},
      {"measurement": "IC50", "setting": "Homo sapiens, Hs-578T, HS578T cell line, breast", "value": "> 50", "unit": "µM"},
      {"measurement": "IC50", "setting": "Homo sapiens, IGROV-1, 72 h, IGROV1 cell line (ovary)", "value": "> 50", "unit": "µM"},
      {"measurement": "IC50", "setting": "Homo sapiens, IMR-90, 72 h, IMR90 cell line, lung", "value": "> 50", "unit": "µM"},
      {"measurement": "IC50", "setting": "Homo sapiens, J82, 72 h, J82 cell line (bladder)", "value": 4.88, "unit": "µM"},
      {"measurement": "IC50", "setting": "Homo sapiens, JEG-3, 72 h, JEG3 cell line (placenta)", "value": "> 50", "unit": "µM"},
      {"measurement": "IC50", "setting": "Homo sapiens, JIMT-1, 72 h, JIMT1 cell line (breast)", "value": "> 50", "unit": "µM"},
      {"measurement": "IC50", "setting": "Homo sapiens, K562, 72 h, K-562 cell line (hematological)", "value": "> 50", "unit": "µM"},
      {"measurement": "IC50", "setting": "Homo sapiens, Kasumi 1, 72 h, KASUMI-1 cell line (hematological)", "value": "> 50", "unit": "µM"},
      {"measurement": "IC50", "setting": "Homo sapiens, L-363, 72 h, L-363 cell line (hematological)", "value": "> 50", "unit": "µM"},
      {"measurement": "IC50", "setting": "Homo sapiens, MCF7, 72 h, MCF7 cell line (breast)", "value": "> 50", "unit": "µM"},
      {"measurement": "IC50", "setting": "Homo sapiens, MDA-MB-231, 72 h, MDAMB231 cell line (breast)", "value": "> 50", "unit": "µM"},
      {"measurement": "IC50", "setting": "Homo sapiens, MDA-MB-435, 72 h, MDAMB435 cell line (skin)", "value": "> 50", "unit": "µM"},
      {"measurement": "IC50", "setting": "Homo sapiens, MDA-MB-468, 72 h, MDAMB468 cell line (breast)", "value": "> 50", "unit": "µM"},
      {"measurement": "IC50", "setting": "Homo sapiens, MG-63, 72 h, MG63 cell line (bone)", "value": "> 50", "unit": "µM"},
      {"measurement": "IC50", "setting": "Homo sapiens, MIA PaCa-2, 72 h, MIAPACA2 cell line (pancreas)", "value": "> 50", "unit": "µM"},
      {"measurement": "IC50", "setting": "Homo sapiens, MV4-11, 72 h, MV4-11 cell line (hematological)", "value": 0.38, "unit": "µM"},
      {"measurement": "IC50", "setting": "Homo sapiens, NCI-H292, 72 h, NCIH292 cell line (lung)", "value": "> 50", "unit": "µM"},
      {"measurement": "IC50", "setting": "Homo sapiens, NCI-H460, 72 h, NCIH460 cell line (lung)", "value": 2.8, "unit": "µM"},
      {"measurement": "IC50", "setting": "Homo sapiens, OVCAR-3, 72 h, OVCAR3 cell line (ovary)", "value": "> 50", "unit": "µM"},
      {"measurement": "IC50", "setting": "Homo sapiens, OVCAR-4, 72 h, OVCAR4 cell line (ovary)", "value": "> 50", "unit": "µM"},
      {"measurement": "IC50", "setting": "Homo sapiens, PANC-1, 72 h, PANC1 cell line (pancreas)", "value": "> 50", "unit": "µM"},
      {"measurement": "IC50", "setting": "Homo sapiens, PC-3, 72 h, PC3 cell line (prostate)", "value": "> 50", "unit": "µM"},
      {"measurement": "IC50", "setting": "Homo sapiens, Panc1005, 72 h, PANC1005 cell line (pancreas)", "value": "> 50", "unit": "µM"},
      {"measurement": "IC50", "setting": "Homo sapiens, RD, RD cell line (muscle)", "value": "> 50", "unit": "µM"},
      {"measurement": "IC50", "setting": "Homo sapiens, Ramos, RAMOS cell line (hematological)", "value": "> 50", "unit": "µM"},
      {"measurement": "IC50", "setting": "Homo sapiens, SAOS-2, 72 h, SAOS2 cell line (bone)", "value": "> 50", "unit": "µM"},
      {"measurement": "IC50", "setting": "Homo sapiens, SF-295, 72 h, SF295 cell line (brain)", "value": "> 50", "unit": "µM"},
      {"measurement": "IC50", "setting": "Homo sapiens, SK-MEL-5, 72 h, SKMEL5 cell line, skin", "value": "> 50", "unit": "µM"},
      {"measurement": "IC50", "setting": "Homo sapiens, SK-MEL-28, 72 h, SKMEL28 cell line (skin)", "value": "> 50", "unit": "µM"},
      {"measurement": "IC50", "setting": "Homo sapiens, SK-N-AS, SKNAS cell line (brain)", "value": "> 50", "unit": "µM"},
      {"measurement": "IC50", "setting": "Homo sapiens, SK-N-SH, SKNSH cell line (brain)", "value": "> 50", "unit": "µM"},
      {"measurement": "IC50", "setting": "Homo sapiens, SK-OV-3, 72 h, SKOV3 cell line (ovary)", "value": "> 50", "unit": "µM"},
      {"measurement": "IC50", "setting": "Homo sapiens, SU-DHL10, 72 h, SU-DHL-10 cell line (hematological)", "value": "> 50", "unit": "µM"},
      {"measurement": "IC50", "setting": "Homo sapiens, SW-620, 72 h, SW620 cell line (colon)", "value": "> 50", "unit": "µM"},
      {"measurement": "IC50", "setting": "Homo sapiens, T-24, 72 h, T24 cell line (bladder)", "value": 3.01, "unit": "µM"},
      {"measurement": "IC50", "setting": "Homo sapiens, TE-671, 72 h, TE671 cell line (muscle)", "value": "> 50", "unit": "µM"},
      {"measurement": "IC50", "setting": "Homo sapiens, U2OS, U2OS cell line (bone)", "value": "> 50", "unit": "µM"},
      {"measurement": "IC50", "setting": "Homo sapiens, UMUC3, 72 h, UMUC3 cell line (bladder)", "value": "> 50", "unit": "µM"},
      {"measurement": "IC50", "setting": "Homo sapiens, UO-31, 72 h, UO31 cell line (kidney)", "value": "> 50", "unit": "µM"},
      {"measurement": "IC50", "setting": "MT-3, 72 h, MT3 cell line (breast)", "value": 3.77, "unit": "µM"},
      {"measurement": "IC50", "setting": "NCI-H358M, NCIH358M cell line (lung)", "value": "> 50", "unit": "µM"},
      {"measurement": "IC50", "setting": "PBMC, PBMC (hematological)", "value": "> 50", "unit": "µM"}
    ]}
  ]
}
